Reference: a melting point compilation (Tetko et al.; mined from patent text by program, amines drawn as free bases though some values may be those of a salt)

Structure (SMILES)	melting point [°C]
CCCCCS(=O)(=O)NC(=O)OCc1ccc(OCCCC)cc1Oc1ncc(C(F)(F)F)cc1Cl	124 to 126
C#Cc1c(C#N)nn(-c2c(Cl)cc(C(F)(F)F)cc2Cl)c1N(C)C	145 to 147
COc1cccc2c1Oc1cc(SC)ccc1C2	112 to 114
Cc1nnc2n1-c1ccc(C#CCN3C(=O)C(=O)c4ccccc43)cc1C(c1ccccc1Cl)=NC2	210 to 212
COc1ccc(S(=O)(=O)Nc2cccnc2Nc2ccc(OC(=O)N(C)C)cc2)cc1	202 to 203
N=C(N)NC(=O)Cc1c(-c2ccccc2)cccc1-c1ccc2ccccc2c1	36.8 to 36.9
CCCCOc1ccc(C#CC2(O)CN3CCC2CC3)cn1 (stereo not given)	149 to 151
COc1cccc(COc2cc3c(cc2-c2cc(C=CC(=O)O)ccc2OC)C(C)(C)CCC3(C)C)c1	76 to 78
C[C@H]1CCCC(C)(C)[C@@H]1C(=O)c1ccc(C(F)(F)F)cc1	16 to 20
Cc1nc(Nc2ccc(Cl)cc2)sc1C(=O)O	> 250
COC(=O)C1=C(O)c2sc(C(F)(F)F)cc2S(=O)(=O)N1	168 to 170
CC(=O)Nc1ccc(N2CCC(O)CC2)cc1	191
CCC(=O)N(C(=O)CC)c1cc2c(cc1C)N(C(=O)CC)c1ccc(N(C)C)cc1N2C(=O)CC	198 to 199
Nc1cc(Cl)cc(Cl)c1C(=O)NCc1ccccc1Br	163 to 167
Cc1cc2nncn2nc1-c1ccc(C(N)=S)cc1	268 to 272
CC(C)Cc1ccc(C(F)C(=O)O)cc1 (stereo not given)	64 to 66

Structure (SMILES)	melting point [°C]
FC(F)(F)c1c(Cl)c(Cl)c(C=S)c(Cl)c1Cl	98.5 to 100
CC(C)N(C)C(=O)N1N=C2c3cc(F)ccc3OC[C@@H]2[C@@H]1c1ccccc1 (racemic)	102 to 105
Cc1ccc(C=C(C=O)C(C=O)=Cc2ccc(C)cc2)cc1	177 to 178
O=C(NO)C1(S(=O)(=O)c2ccc(OCc3ccccc3)cc2)CCN(Cc2ccccc2)CC1	89
N#Cc1cc2c(cc1C(F)(F)F)[nH]c(=O)c(=O)n2OC(=O)c1ccccc1	186
CCN1CCN(Cc2ccc(NC(=O)Nc3ccc(Oc4cc(Cl)ncn4)cc3)cc2)CC1	203 to 204
COc1cc(CCCC2OC(=O)NC2=O)ccc1OCc1coc(/C=C/c2ccccc2)n1 (stereo not given)	178 to 179
O=c1[nH]cnc2cc(C(c3ccccc3)n3ccnc3)ccc12 (stereo not given)	205
COC(=O)c1ccc(CBr)c(SC(=O)c2ccc(C(C)(C)C)cc2)c1	152
COc1cc(C=CCO)ccc1OCc1ccccc1	81 to 82
CC(C)n1c2cc(Cl)ccc2c2oc(C(=O)Cl)cc21	141 to 142
Cc1oc2c(C)cc(C(=O)O)cc2c1C	235 to 237
CCC1(CC(=O)OC)OCCc2c1[nH]c1c(CCO)c(F)ccc21 (stereo not given)	101 to 103
O=Cc1ccc2c(c1)ncn2-c1cccc(-c2ccccc2)c1	170 to 172
O=C(N[C@@H](Cc1ccc(OCc2ccccc2)cc1)C(=O)O)c1cn2cc(/C=C/c3ccc(Cl)cc3)ccc2n1	267 to 270
CCOC(=O)c1cnc(-c2ccccc2OCC2CC2)[nH]c1=O	104 to 105

Further lines, results first:

melting point [°C]	Structure (SMILES)
212 to 213	CC1(C)Oc2ccc(OC(F)(F)F)cc2[C@@H](N2Cc3ccccc3C2=O)[C@@H]1O (relative stereo)
272 to 273	Cc1[nH]c(=O)[nH]c1C(=O)C1CC1
98 to 100	COC(C)c1ccc(OCCCN2CCC(c3noc4cc(F)ccc34)CC2)c(O)c1 (stereo not given)
118	CC1=C(CCO)c2cc(F)ccc2/C1=C\c1ccc(S(C)(=O)=O)cc1
115	CCOc1n[nH]c(=O)n1CC
137 to 140	Nc1cccnc1N1CCN(C(=O)c2ccc(C(=O)O)cn2)CC1
163 to 164	O=C(O)CCN(C1(C(=O)NO)CCCC1)S(=O)(=O)c1ccc(-c2ccc(F)cc2)cc1
159 to 160	CCOC(=O)c1cc(=O)n(CCC(C(=O)NO)N(C)S(=O)(=O)c2ccc(Oc3ccccc3)cc2)c(=O)[nH]1 (stereo not given)
72 to 78	O=C1OCCC=C1c1ccc(F)c(F)c1
193 to 194	Cc1nccn1-c1ccc(NC(=O)CCc2cnoc2-c2ccc(Cl)cc2)cn1
87.5 to 92.5	COc1cccc(NC(=O)Nc2nc3nc(NCCCN4CCN(C)CC4)ncc3cc2-c2c(Cl)cccc2Cl)c1
185 to 187	NS(=O)(=O)c1cc2ccc(O)cc2o1
125 to 127	COc1c(OC(C)=O)c(C)c(CCCC(=O)O)c(OC(C)=O)c1OC
120 to 121	CC1(C)CN(C2CCN(c3ccc(F)c(Cl)c3)C2=O)C1=O (stereo not given)
210 to 211	O=C(O)C1CCCN1C(=O)CCc1cccc(-c2nc(=O)c3ccccc3s2)n1 (stereo not given)
111 to 113	N#Cc1ccc(F)cc1-c1ccc(F)cc1
178 to 180	CCCc1nc2c(N)nc3cc(OCc4c(C)noc4C)ccc3c2s1
139 to 140	Cc1cc(C)cc(NC(=O)CN2CCN(c3ncccc3C#N)CC2)c1
119 to 121	COc1cc2c(cc1OC)CN(CCCCNC(=O)c1cc(Br)ccc1OCCF)CC2

melting point [°C]	Structure (SMILES)
156	Nc1ccc2c(c1)c(-c1ccc(CO)o1)nn2Cc1ccccc1
109 to 111	CNC(=C[N+](=O)[O-])NCCSCc1cc(CN2CCCC2)cs1
222 to 225	CC(C)(C)OC(=O)N1CCCC(c2nc3c(N[C@H]4[C@@H](C(N)=O)[C@@H]5C=C[C@H]4C5)ccnc3[nH]2)C1 (stereo not given in full)
229 to 230	CCc1cc(Br)cc2c1C(=O)C(=O)N2
89 to 91	S=C(SSC(=S)c1ccccc1)c1ccccc1
217 to 218	N#Cc1ccc(Nn2cnnc2)cc1-c1ccco1
175 to 176	COc1ccc(-c2cc(=S)n(Cc3ccc(F)cc3F)nc2-c2ccc(OC)cc2)cc1
110 to 112	CC(C)(Sc1cc(C(C)(C)C)c(O)c(C(C)(C)C)c1)Sc1cc(C(C)(C)C)c(OCC[C@H](O)CO)c(C(C)(C)C)c1
223 to 225	Cn1c(=O)c(-c2ccc(Cl)cc2Cl)cc2c3cc(I)ccc3n(C)c21
126 to 130	COc1ccc(-c2nc(CNC(=O)CC(=O)O)sc2-c2ccc(OC)cc2)cc1
250 to 251	O=C(O)c1cccc(-c2cc(-c3ccccc3)on2)c1
212 to 213	COc1c(NC(=O)Nc2ccc(Oc3cc(C)nc(C)n3)c3ccccc23)cc(C(F)(F)F)cc1NS(C)(=O)=O
113 to 114	CC/C(=C\C=C\C(O)(C(F)(F)F)C(F)(F)F)c1ccc(COc2ccc(CO)c(CO)c2)s1
172 to 174	CCCNC(=O)NNC(=O)c1ccccc1
100 to 102	CCOC(=O)c1oc2ccc(Cl)cc2c1O
146 to 148	CC1=C(C(=O)O)[C@H](c2cccc([N+](=O)[O-])c2)C(C(=O)OCOC(=O)C(C)(C)C)=C(C)N1
235 to 236	CNc1nc(-c2ccccc2)c(-c2nc3ccccc3c(=O)n2-c2ccc(OC)cc2)s1
66.5 to 68	CC(=O)CCc1cc(OC(C)=O)c(C(C)(C)C)cc1OC(C)=O
108 to 110	CC(C)[C@H](NC(=O)[C@H](CC(=O)OC(C)(C)C)NC(=O)CNC(=O)c1csc(NC(=O)NCc2ccccc2)n1)C(=O)OC(C)(C)C
